What was measured:
[1] = test system: cultured human myotubes (primary myoblasts W018); assay: In vitro model for muscle protein synthesis: Click-iT OPP incorporation in myotubes (modified MyoScreen); type: cell-based; conditions: myotubes in DMEM with 0.15× plasma amino acid profile, treated with amino acids at 1× human plasma concentration, 4 days; Click-iT signal in myotube mask
Protocol: The ability of amino acids to influence protein synthesis in muscle cells was assessed using a modified version of MyoScreen (Cytoo SA, Grenoble Fr).
(§1) Primary myoblasts (W018) were amplified and seeded into CYTOOplates on Day 0. After one day differentiation was started in DMEM/F12+GlutaMAX supplemented with 0.1% Horse Serum.
Protein Synthesis after 4 Days by Fluorescence Microscopy
After 4 days of culture, cells were washed twice with PBS 1× (Gibco), fixed with 4% Paraformaldehyde, and washed twice with PBS 1× (100 μL). Cells were then permeabilized by 0.5% Triton X-100 followed by three washes with PBS. After fixation, cells were immuno-stained for troponin to identify specific myotubes. […] In the Click-iT assay, 0-propargyl-puromycin (OPP) is efficiently incorporated into newly translated proteins in vivo for 30 minutes and then fluorescently labeled with Alexa Fluor® dye, which can be detected by high-content imaging (Molecular Devices). Click-iT signal was restricted to the myotube mask generated by the troponin co-stain. Data was collected as Click-iT mean intensity in myotubes (au). Images were acquired with Operetta HCS platform (Perkin Elmer) using a 10× objective in three fluorescent channels: nuclei, Troponin T, and Click-iT. Image processing and analysis were performed with a dedicated algorithm developed on Acapella high Content imaging Software (Perkin Elmer) at CYTOO. […]

[2] = test system: differentiating cultured human myotubes (primary myoblasts W018); assay: In vitro model for myogenesis: myotube fusion index (modified MyoScreen); type: cell-based; conditions: myotubes in DMEM with 0.15× plasma amino acid profile, treated with amino acids at 1× human plasma concentration, 4 days
Protocol: as §1
Fusion Index Analysis after 4 Days by Fluorescence Microscopy
Images were acquired with Operetta HCS platform (Perkin Elmer) using a 10× objective in two fluorescent channels: nuclei, Troponin T. Image processing and analysis were performed with a dedicated algorithm developed on Acapella high Content imaging Software (Perkin Elmer) at CYTOO. Nuclei within myotubes were counted under myotube mask generated by troponin co-stain and fusion index was calculated as the percentage of fused nuclei in myotube over total nuclei. Statistical analysis was done with T-Test relative to the untreated condition.

N[C@@H](CC(=O)O)C(=O)O [D, Aspartic acid/Aspartate]
Protein Synthesis median [1]: 0.1078 | Fusion Index median [2]: 0.05657
